Experimental data taken from patent publication US20240101576A1, “HETEROCYCLIC INHIBITORS OF EGFR AND/OR HER2, FOR USE IN THE TREATMENT OF CANCER” (Scorpion Therapeutics, Inc., priority 2020, published 2024).

How the values were obtained:
Format in all cases: cell-based
[1] = target: T1, EGFR WT (Ba/F3 cells) (Homo sapiens, UniProt P00533); test: Inhibitor activity on EGFR-dependent cell growth (CellTiter-Glo, 72 h), Ba/F3 EGFR WT; conditions: read-out: BaF3 WT IC50
T1 construct: expressed in transfected cells; host or cells: Ba/F3 (murine pro-B cells), retroviral transduction, puromycin selection, maintained with EGF
Summary of the method: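 This growth assay used Ba/F3 cells that depend on wild-type EGFR and are kept in EGF without IL3. Compounds were made up as 10 mM DMSO stocks and diluted 3-fold over 10 points. 120 nL went onto 600 cells/well. After 72 hours, 40 μL CellTiter-Glo was added and luminescence read on EnVision after 30 min.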

[2] = target: T2, EGFR exon 20 ASV Ins V769_D770 (Ba/F3 cells) (Homo sapiens, UniProt P00533, INS769ASV); test: Inhibitor activity on EGFR-dependent cell growth (CellTiter-Glo, 72 h), Ba/F3 EGFR exon 20 ASV Ins; conditions: read-out: BaF3 ASV IC50
T2 construct: expressed in transfected cells; host or cells: Ba/F3 (murine pro-B cells), retroviral transduction, puromycin selection, IL3-independent pool
Summary of the method: (§1)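 IC50s derive from a sigmoidal dose–response fit of CellTiter-Glo signal. The signal was normalised between […]-treated cells and cell-free medium. Ba/F3 mutant-EGFR cells, seeded at 400–800/well depending on the line, had 72 h of exposure to a 10-point, 3-fold compound series.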

[3] = target: T3, EGFR exon 20 SVD Ins D770_N771 (Ba/F3 cells) (Homo sapiens, UniProt P00533, INS770SVD); test: Inhibitor activity on EGFR-dependent cell growth (CellTiter-Glo, 72 h), Ba/F3 EGFR exon 20 SVD Ins; conditions: read-out: BaF3 SVD IC50
T3 construct: expressed in transfected cells; host or cells: Ba/F3 (murine pro-B cells), retroviral transduction, puromycin selection, IL3-independent pool
Summary of the method: as §1

[4] = target: T4, EGFR exon 20 FQEA Ins A763_V764 (Ba/F3 cells) (Homo sapiens, UniProt P00533, INS763FQEA); test: Inhibitor activity on EGFR-dependent cell growth (CellTiter-Glo, 72 h), Ba/F3 EGFR exon 20 FQEA Ins; conditions: read-out: BaF3 FQEA IC50
T4 construct: expressed in transfected cells; host or cells: Ba/F3 (murine pro-B cells), retroviral transduction, puromycin selection, IL3-independent pool
Summary of the method: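 For each mutant line, growth depends on EGFR signalling in the absence of IL3. Density per well: 400 for L858R, 600 for the C797S double mutant, 800 for exon 19del and FQEA. Ten threefold dilutions were applied for 72 h. %Inhibition = 100×(DMSO − sample)/(DMSO − medium blank).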

[5] = target: T2, EGFR exon 20 ASV Ins V769_D770 (Ba/F3 cells); test: Inhibitor activity on EGFR phosphorylation (pEGFR AlphaLISA, 2 h), Ba/F3 EGFR exon 20 ASV Ins; conditions: EGFR phosphorylation, AlphaLISA, 2 hours; read-out: ASV IC50 (pEGFR)
From the text: Example B. Inhibitor Activity on EGFR phosphorylation (pEGFR)
EGFR mutant Ba/F3 cells were generated by transduction with retrovirus containing vectors expressing EGFR L858R, EGFR exon 19del, EGFR L858R/C797S, EGFR exon 20 NPG Ins D770_N771, EGFR exon 20 ASV Ins V769_D770, or EGFR exon 20 SVD Ins D770_N771 genes along with a puromycin selection marker. Transduced cells are selected with puromycin for 7 days and are then be transferred into culture media without Interleukin 3 (IL3). Surviving cells are confirmed to express EGFR by Western blot and maintained as a pool. CUTO14 cells were obtained from Dr. Robert C. Doebele at the University of Colorado. The IC50 date are included in Table 6 and Table 7.
1.1 Cells are harvested from flask into cell culture medium and the cell number counted.
1.2 Cells are diluted with culture medium to the desired density and 40 μL of cell suspension is added into each well of 384-well cell culture plate and the seeding density is 50K cells/well (Ba/F3) or 12.5K cells/well (CUTO14).
2 Compound Preparation and Treatment
2.1 Test compounds are dissolved to 10 mM in a DMSO stock solution. 45 μL of stock solution is transferred to a 384 polypropylene plate (pp-plate). Perform 3-fold, 10-point dilution via transferring 15 μL compound into 30 μL DMSO using a TECAN (EVO200) liquid handler.
2.2 Spin plates at room temperature at 1,000 RPM for 1 minute.
2.3 Transfer 5 nL of diluted compound from compound source plate into the cell plate.
2.4 After compound treatment for 2 hours, perform pEGFR detection by AlphaLISA for compound treatment plates as described in “Detection” section.
3 Detection by pEGFR AlphaLISA (Perkin-Elmer)
3.1 Plates are removed from incubators and equilibrated at room temperature for 10 minutes, and media was removed
3.2 10 μL of lysis buffer is added and plates shaken at 600 rpm for 1 hr.
3.3 Prepare acceptor mix just before use and dispense 5 μL of acceptor mix to all the wells. Shake 350 rpm for Ihr in the dark
3.4 Prepare donor mix under low light conditions prior to use. Dispense 5 μL of donor mix to all the wells. Mix well on the shaker, seal and wrap in aluminum foil and incubate 1.5 hrs at room temperature in the dark
3.5 Transfer 18.5 μL mixture to OptiPlate 384, and read using an Envision. The IC50 date were included in Table 6 and Table 7.

[6] = target: T5, EGFR exon 20 NPG Ins D770_N771 (Ba/F3 cells) (Homo sapiens, UniProt P00533, INS770NPG); test: Inhibitor activity on EGFR-dependent cell growth (CellTiter-Glo, 72 h), Ba/F3 EGFR exon 20 NPG Ins; conditions: read-out: BaF3 NPG IC50
T5 construct: expressed in transfected cells; host or cells: Ba/F3 (murine pro-B cells), retroviral transduction, puromycin selection, IL3-independent pool
Summary of the method: as §1

T5 sequence (P00533 with tags, fused parts or gaps INS770NPG): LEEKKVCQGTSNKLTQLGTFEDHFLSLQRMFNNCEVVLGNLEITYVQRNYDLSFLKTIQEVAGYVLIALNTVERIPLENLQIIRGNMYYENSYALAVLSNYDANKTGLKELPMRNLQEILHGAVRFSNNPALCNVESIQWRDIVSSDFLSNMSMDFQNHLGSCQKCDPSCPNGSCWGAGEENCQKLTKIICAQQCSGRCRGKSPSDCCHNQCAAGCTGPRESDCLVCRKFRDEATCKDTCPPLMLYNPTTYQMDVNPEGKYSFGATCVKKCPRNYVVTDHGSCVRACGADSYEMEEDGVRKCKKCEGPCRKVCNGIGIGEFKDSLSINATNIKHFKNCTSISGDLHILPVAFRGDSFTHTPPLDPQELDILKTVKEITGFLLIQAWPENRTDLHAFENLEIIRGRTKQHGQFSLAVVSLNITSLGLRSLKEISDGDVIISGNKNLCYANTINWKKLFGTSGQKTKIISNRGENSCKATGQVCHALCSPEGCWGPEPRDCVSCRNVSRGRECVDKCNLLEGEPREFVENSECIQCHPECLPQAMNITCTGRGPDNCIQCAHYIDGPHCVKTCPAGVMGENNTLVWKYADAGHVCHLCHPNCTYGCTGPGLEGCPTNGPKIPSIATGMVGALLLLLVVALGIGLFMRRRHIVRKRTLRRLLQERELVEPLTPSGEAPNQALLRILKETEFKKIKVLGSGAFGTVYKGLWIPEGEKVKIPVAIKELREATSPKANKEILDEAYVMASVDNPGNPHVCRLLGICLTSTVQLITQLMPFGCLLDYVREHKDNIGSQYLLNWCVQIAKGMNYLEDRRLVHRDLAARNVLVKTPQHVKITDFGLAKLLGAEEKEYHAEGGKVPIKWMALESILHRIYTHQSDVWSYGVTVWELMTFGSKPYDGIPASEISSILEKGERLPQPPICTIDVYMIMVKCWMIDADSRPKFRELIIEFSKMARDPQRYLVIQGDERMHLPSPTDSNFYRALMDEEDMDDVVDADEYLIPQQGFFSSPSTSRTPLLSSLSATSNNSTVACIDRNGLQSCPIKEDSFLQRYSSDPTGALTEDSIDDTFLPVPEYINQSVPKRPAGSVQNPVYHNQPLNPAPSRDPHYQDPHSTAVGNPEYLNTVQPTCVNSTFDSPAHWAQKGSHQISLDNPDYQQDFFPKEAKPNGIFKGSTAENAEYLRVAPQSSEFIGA
T1 sequence (P00533 25-1210): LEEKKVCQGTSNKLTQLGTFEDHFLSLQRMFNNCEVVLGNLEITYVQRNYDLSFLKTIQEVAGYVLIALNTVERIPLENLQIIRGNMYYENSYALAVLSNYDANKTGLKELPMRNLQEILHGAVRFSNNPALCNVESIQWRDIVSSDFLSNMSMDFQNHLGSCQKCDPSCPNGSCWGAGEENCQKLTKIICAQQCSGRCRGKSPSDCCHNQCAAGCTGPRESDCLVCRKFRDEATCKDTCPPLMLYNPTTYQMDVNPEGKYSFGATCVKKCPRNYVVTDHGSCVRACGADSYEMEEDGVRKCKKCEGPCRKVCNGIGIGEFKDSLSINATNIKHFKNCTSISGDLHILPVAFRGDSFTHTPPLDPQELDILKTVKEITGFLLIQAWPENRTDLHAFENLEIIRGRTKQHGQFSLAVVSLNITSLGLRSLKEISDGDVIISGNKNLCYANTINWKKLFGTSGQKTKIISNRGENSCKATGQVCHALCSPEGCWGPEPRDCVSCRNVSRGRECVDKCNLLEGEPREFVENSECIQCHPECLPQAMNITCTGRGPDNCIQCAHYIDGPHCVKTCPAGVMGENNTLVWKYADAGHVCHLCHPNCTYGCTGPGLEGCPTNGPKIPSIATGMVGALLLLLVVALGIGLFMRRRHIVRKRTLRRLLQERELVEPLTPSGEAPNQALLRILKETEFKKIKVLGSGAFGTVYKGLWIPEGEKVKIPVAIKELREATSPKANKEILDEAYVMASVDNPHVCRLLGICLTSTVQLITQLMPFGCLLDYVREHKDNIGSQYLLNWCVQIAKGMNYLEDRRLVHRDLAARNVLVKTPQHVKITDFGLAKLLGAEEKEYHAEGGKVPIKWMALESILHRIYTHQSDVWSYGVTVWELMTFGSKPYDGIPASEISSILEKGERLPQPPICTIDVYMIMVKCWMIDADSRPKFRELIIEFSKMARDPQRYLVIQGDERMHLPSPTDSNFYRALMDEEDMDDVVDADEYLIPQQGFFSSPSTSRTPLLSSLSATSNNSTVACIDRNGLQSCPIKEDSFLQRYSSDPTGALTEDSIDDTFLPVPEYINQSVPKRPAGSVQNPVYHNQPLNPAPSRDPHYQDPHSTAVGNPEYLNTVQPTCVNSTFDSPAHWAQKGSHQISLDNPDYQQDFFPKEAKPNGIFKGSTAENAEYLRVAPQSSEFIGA
T4 sequence (P00533 with tags, fused parts or gaps INS763FQEA): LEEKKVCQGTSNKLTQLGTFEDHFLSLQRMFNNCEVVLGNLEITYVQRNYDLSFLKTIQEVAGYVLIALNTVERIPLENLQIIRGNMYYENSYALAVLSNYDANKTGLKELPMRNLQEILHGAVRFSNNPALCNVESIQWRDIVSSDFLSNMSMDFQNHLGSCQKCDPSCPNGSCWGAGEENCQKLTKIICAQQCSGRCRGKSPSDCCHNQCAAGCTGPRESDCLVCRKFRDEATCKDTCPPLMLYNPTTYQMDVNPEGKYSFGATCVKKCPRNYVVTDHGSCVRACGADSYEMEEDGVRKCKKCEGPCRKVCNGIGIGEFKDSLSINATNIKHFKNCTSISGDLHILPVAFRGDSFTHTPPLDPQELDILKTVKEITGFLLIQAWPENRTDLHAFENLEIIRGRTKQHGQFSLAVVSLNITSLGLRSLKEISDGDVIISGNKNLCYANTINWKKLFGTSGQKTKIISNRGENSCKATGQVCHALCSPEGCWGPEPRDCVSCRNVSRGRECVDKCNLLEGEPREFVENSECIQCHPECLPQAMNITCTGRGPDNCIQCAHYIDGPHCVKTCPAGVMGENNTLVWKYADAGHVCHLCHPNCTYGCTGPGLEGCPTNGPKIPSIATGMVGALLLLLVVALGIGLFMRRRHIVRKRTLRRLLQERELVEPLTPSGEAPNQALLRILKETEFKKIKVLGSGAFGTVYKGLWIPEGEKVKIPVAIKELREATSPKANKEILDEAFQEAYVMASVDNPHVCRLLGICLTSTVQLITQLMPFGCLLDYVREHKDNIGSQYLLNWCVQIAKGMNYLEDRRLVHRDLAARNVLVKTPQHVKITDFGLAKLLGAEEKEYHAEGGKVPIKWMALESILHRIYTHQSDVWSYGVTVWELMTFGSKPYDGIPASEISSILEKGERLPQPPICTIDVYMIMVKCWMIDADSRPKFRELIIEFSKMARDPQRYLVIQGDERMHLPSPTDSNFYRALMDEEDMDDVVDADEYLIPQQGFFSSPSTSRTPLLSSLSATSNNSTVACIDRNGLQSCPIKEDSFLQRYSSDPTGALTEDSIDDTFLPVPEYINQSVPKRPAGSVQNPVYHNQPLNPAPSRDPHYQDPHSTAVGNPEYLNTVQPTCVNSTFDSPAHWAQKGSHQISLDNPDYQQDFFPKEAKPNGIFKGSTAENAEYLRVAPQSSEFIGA
T3 sequence (P00533 with tags, fused parts or gaps INS770SVD): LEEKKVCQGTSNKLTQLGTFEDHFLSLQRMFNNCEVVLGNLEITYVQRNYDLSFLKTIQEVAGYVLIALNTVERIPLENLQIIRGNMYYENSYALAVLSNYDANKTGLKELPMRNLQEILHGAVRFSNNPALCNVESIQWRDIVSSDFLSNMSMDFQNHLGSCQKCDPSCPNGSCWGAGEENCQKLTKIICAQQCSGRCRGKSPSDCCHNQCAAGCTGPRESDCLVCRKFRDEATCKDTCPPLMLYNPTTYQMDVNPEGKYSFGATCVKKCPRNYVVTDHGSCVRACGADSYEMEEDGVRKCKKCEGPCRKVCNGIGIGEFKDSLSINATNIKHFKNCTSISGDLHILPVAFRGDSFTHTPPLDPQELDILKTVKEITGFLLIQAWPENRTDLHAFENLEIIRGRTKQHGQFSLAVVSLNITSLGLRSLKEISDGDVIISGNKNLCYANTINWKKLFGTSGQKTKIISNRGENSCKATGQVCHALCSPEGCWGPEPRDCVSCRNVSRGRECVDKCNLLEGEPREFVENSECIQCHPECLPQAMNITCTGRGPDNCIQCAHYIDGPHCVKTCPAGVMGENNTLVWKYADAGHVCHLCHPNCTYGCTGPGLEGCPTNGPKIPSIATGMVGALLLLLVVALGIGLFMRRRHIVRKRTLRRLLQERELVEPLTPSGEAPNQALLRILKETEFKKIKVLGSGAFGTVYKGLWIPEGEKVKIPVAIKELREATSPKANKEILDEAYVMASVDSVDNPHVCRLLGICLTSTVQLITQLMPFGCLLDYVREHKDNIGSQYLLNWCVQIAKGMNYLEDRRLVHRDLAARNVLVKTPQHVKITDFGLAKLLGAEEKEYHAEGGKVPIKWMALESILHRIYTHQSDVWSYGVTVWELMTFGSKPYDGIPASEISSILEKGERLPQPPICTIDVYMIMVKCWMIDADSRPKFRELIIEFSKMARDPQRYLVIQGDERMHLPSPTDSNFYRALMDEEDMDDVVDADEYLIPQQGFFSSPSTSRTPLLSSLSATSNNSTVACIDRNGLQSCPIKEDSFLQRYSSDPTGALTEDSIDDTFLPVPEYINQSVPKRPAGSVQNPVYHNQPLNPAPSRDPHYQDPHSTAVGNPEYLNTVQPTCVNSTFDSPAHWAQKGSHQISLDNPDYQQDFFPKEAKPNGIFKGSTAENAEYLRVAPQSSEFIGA

IC50 [1] [nM]	IC50 [2] [nM]	IC50 [3] [nM]	IC50 [4] [nM]	IC50 [5] [nM]	IC50 [6] [nM]	SMILES
> 1000	> 1000	> 1000	> 1000	100 to 1000	–	COc1c(Cl)cccc1Nc1c(-c2ccnc(NC3CC(F)(F)C3)n2)[nH]c2c1C(=O)NCC2 [Compound 712, 3-[(3-chloro-2-methoxyphenyl)amino]-2-[2-[(3,3-difluorocyclobutyl)amino]pyrimidin-4-yl]-1H,5H,6H,7H-pyrrolo[3,2-c] pyridin-4-one]
> 1000	–	–	> 1000	> 1000	–	Nc1nccc(-c2[nH]c3c(c2Nc2ccc(Cl)cc2)C(=O)NCC3)n1 [compound 192]
> 1000	> 1000	> 1000	> 1000	> 1000	–	Cc1cccc(F)c1Nc1c(-c2ccnc(N)n2)[nH]c2c1C(=O)NCC2 [compound 198]
100 to 1000	< 100	< 100	100 to 1000	< 100	–	COc1c(Cl)cccc1Nc1c(-c2ccnc(N)n2)[nH]c2c1C(=O)N[C@H](C)C2 [187b]
> 1000	> 1000	> 1000	> 1000	100 to 1000	–	COc1c(F)cccc1Nc1c(-c2ccnc(C)c2)[nH]c2c1C(=O)NCC2 [compound 261]
–	> 1000	> 1000	100 to 1000	100 to 1000	–	Cc1c(F)cccc1Nc1c(-c2nc(N)ncc2F)[nH]c2c1C(=O)NCC2 [Compound 689, 2-(2-amino-5-fluoropyrimidin-4-yl)-3-[(3-fluoro-2-methylphenyl)amino]-1H,5H,6H,7H-pyrrolo[3,2-c]pyridin-4-one]
> 1000	–	–	> 1000	100 to 1000	–	CCOc1c(Cl)cccc1Nc1c(-c2ccnc(N)n2)[nH]c2c1C(=O)NCC2 [Compound 700, 2-(2-aminopyrimidin-4-yl)-3-[(3-chloro-2-ethoxyphenyl)amino]-1H,5H,6H,7H-pyrrolo[3,2-c]pyridin-4-one; trifluoroacetic acid]
> 1000	–	–	100 to 1000	< 100	–	COc1c(C)cccc1Nc1c(-c2ccnc(N)n2)[nH]c2c1C(=O)NCC2 [compound 305]
100 to 1000	< 100	< 100	100 to 1000	–	< 100	COc1c(F)cccc1Nc1c(-c2ccncc2F)[nH]c2c1C(=O)NC[C@H]2C[C@H]1CCO1 [Compound 422d, (7R)-3-[(3-fluoro-2-methoxyphenyl)amino]-2-(3-fluoropyridin-4-yl)-7-[(2S)-oxetan-2-ylmethyl]-1H,5H,6H,7H-pyrrolo[3,2-c]pyridin-4-one]
100 to 1000	–	–	100 to 1000	< 100	–	Nc1nccc(-c2[nH]c3c(c2Nc2cccc(Cl)c2)C(=O)NCC3)n1 [compound 193]
> 1000	100 to 1000	100 to 1000	100 to 1000	–	100 to 1000	CSc1c(F)cccc1Nc1c(-c2ccnc(N)n2)[nH]c2c1C(=O)NCC2 [Compound 716, 2-(2-aminopyrimidin-4-yl)-3-[[3-fluoro-2-(methylsulfanyl)phenyl]amino]-1H,5H,6H,7H-pyrrolo[3,2-c]pyridin-4-one; trifluoroacetic acid]
> 1000	100 to 1000	100 to 1000	100 to 1000	–	100 to 1000	COCC[C@H]1CNC(=O)c2c1[nH]c(-c1ccncc1F)c2Nc1cccc(F)c1OC [421a]
> 1000	> 1000	> 1000	> 1000	–	100 to 1000	COc1c(Cl)cccc1Nc1c(-c2ccncc2F)[nH]c2c1C(=O)NC[C@@H]2CC1COC1 [468a]
> 1000	100 to 1000	100 to 1000	> 1000	–	100 to 1000	COc1c(Nc2c(-c3ccnc(N)n3)[nH]c3c2C(=O)NCC3)ccc(F)c1Cl [compound 713, 2-(2-aminopyrimidin-4-yl)-3-[(3-chloro-4-fluoro-2-methoxyphenyl)amino]-1H,5H,6H,7H-pyrrolo[3,2-c]pyridin-4-one]
> 1000	> 1000	> 1000	> 1000	–	> 1000	COc1c(F)cccc1Nc1c(-c2ccncc2F)[nH]c2c1C(=O)NC[C@H]2CC1COC1 [469a]
100 to 1000	< 100	< 100	100 to 1000	–	100 to 1000	COc1c(Cl)cccc1Nc1c(-c2ccnc3ccc(OCCN(C)C)nc23)[nH]c2c1C(=O)NCC2 [compound 736, 3-[(3-chloro-2-methoxyphenyl)amino]-2-[6-[2-(dimethylamino)ethoxy]-1,5-naphthyridin-4-yl]-1H,5H,6H,7H-pyrrolo[3,2-c] pyridin-4-one; formic acid]
> 1000	< 100	< 100	100 to 1000	–	< 100	COc1c(Cl)cccc1Nc1c(-c2ccncc2F)[nH]c2c1C(=O)NC[C@@H]2CC(=O)N(C)C [Compound 488]
> 1000	100 to 1000	100 to 1000	100 to 1000	–	100 to 1000	COc1c(F)cccc1Nc1c(-c2ccncc2F)[nH]c2c1C(=O)NC[C@@H]2C[C@@H]1COCCO1 [Compound 526, (7S)-7-[(2R)-1,4-dioxan-2-ylmethyl]-3-[(3-fluoro-2-methoxyphenyl)amino]-2-(3-fluoropyridin-4-yl)-1H,5H,6H,7H-pyrrolo[3,2-c]pyridin-4-one]
100 to 1000	< 100	< 100	< 100	–	< 100	COc1c(Cl)cccc1Nc1c(-c2ccnc3cccnc23)[nH]c2c1C(=O)NCC2 [Compound 683, 3-[(3-chloro-2-methoxyphenyl)amino]-2-(1,5-naphthyridin-4-yl)-1H,5H,6H,7H-pyrrolo[3,2-c]pyridin-4-one]
100 to 1000	< 100	< 100	100 to 1000	–	< 100	COc1c(Cl)cccc1Nc1c(-c2ccnc3ccc(O[C@H]4CCOC4)nc23)[nH]c2c1C(=O)NCC2 [compound 739, 3-[(3-chloro-2-methoxyphenyl)amino]-2-[6-[(3S)-oxolan-3-yloxy]-1,5-naphthyridin-4-yl]-1H,5H,6H,7H-pyrrolo[3,2-c]pyridin-4-one]
100 to 1000	< 100	< 100	100 to 1000	–	100 to 1000	COc1c(Cl)cccc1Nc1c(-c2ccnc3ccc(OCC(F)(F)F)nc23)[nH]c2c1C(=O)NCC2 [compound 763, 3-[(3-chloro-2-methoxyphenyl)amino]-2-[6-(2,2,2-trifluoroethoxy)-1,5-naphthyridin-4-yl]-1H,5H,6H,7H-pyrrolo[3,2-c]pyridin-4-one]
100 to 1000	–	–	100 to 1000	< 100	–	Nc1nccc(-c2[nH]c3c(c2Nc2ccccc2Cl)C(=O)NCC3)n1 [compound 194]
